Experimental data reported in PubChem BioAssay AID2060912 (Molecular Pharmacology Branch, DTP, NCI, 2025).

System: HUVEC/MSC spheroids viability
Experiment: Human HUVEC/MSC cell line growth inhibition [KRAS2];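 for viability, T/C: percent of DMSO vehicle control luminescence so 100% = untreated viability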
Conditions: for viability, T/C: stronger effect = lower value
Procedure, shortened: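 Spheroids of human HUVEC plus MSCs, without tumor cells, were treated with single agents and combinations. Each drug was tested in half-log steps down from near its clinical Cmax, or from 10 microM when Cmax was unknown. HUVEC and hMSC were used at passage </=5.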

For `CN(C)C/C=C/C(=O)Nc1cc2c(Nc3ccc(F)c(Cl)c3)ncnc2cc1O[C@H]1CCOC1` + C=CC(=O)N1CCN(c2nc(OCC3CCCN3C)nc3c2CCN(c2cccc4cccc(C)c24)C3)CC1CC#N, the IC50 (curve of first compound, second compound 0.00949 µM) was > 100 nM, the IC50 (curve of first compound, second compound 0.03 µM) was > 100 nM and the IC50 (curve of first compound, second compound 0.0949 µM) was > 100 nM. For the same compound, the IC50 (curve of first compound, second compound 0.3 µM) was > 100 nM, the IC50 (curve of first compound, second compound 0.949 µM) was > 100 nM and the IC50 (curve of first compound, second compound 3 µM) was > 100 nM. For the same compound, the viability, T/C (second compound 0.00949 µM, first compound 0.000316 µM) was 79.2%, the viability, T/C (second compound 0.00949 µM, first compound 0.001 µM) was 95.1% and the viability, T/C (second compound 0.00949 µM, first compound 0.00316 µM) was 88.5%. It also gave a viability, T/C (second compound 0.00949 µM, first compound 0.01 µM) of 82.1%, a viability, T/C (second compound 0.00949 µM, first compound 0.0316 µM) of 67.7% and a viability, T/C (second compound 0.00949 µM, first compound 0.1 µM) of 74.4%. For the same compound, the viability, T/C (second compound 0.03 µM, first compound 0.000316 µM) was 92.5%, the viability, T/C (second compound 0.03 µM, first compound 0.001 µM) was 92.5% and the viability, T/C (second compound 0.03 µM, first compound 0.00316 µM) was 90.8%. It also gave a viability, T/C (second compound 0.03 µM, first compound 0.01 µM) of 78.8%, a viability, T/C (second compound 0.03 µM, first compound 0.0316 µM) of 88.4% and a viability, T/C (second compound 0.03 µM, first compound 0.1 µM) of 99.2%. It also gave a viability, T/C (second compound 0.0949 µM, first compound 0.000316 µM) of 85.7%, a viability, T/C (second compound 0.0949 µM, first compound 0.001 µM) of 84.9% and a viability, T/C (second compound 0.0949 µM, first compound 0.00316 µM) of 82.3%. The viability, T/C (second compound 0.0949 µM, first compound 0.01 µM) was 79.8%, the viability, T/C (second compound 0.0949 µM, first compound 0.0316 µM) was 82.9% and the viability, T/C (second compound 0.0949 µM, first compound 0.1 µM) was 95.2%. The viability, T/C (second compound 0.3 µM, first compound 0.000316 µM) was 82.6%, the viability, T/C (second compound 0.3 µM, first compound 0.001 µM) was 84.5% and the viability, T/C (second compound 0.3 µM, first compound 0.00316 µM) was 76.1%. It also gave a viability, T/C (second compound 0.3 µM, first compound 0.01 µM) of 73.4%, a viability, T/C (second compound 0.3 µM, first compound 0.0316 µM) of 80.4% and a viability, T/C (second compound 0.3 µM, first compound 0.1 µM) of 63%. The viability, T/C (second compound 0.949 µM, first compound 0.000316 µM) was 63.9%, the viability, T/C (second compound 0.949 µM, first compound 0.001 µM) was 69.8% and the viability, T/C (second compound 0.949 µM, first compound 0.00316 µM) was 72.3%. It also gave a viability, T/C (second compound 0.949 µM, first compound 0.01 µM) of 80%, a viability, T/C (second compound 0.949 µM, first compound 0.0316 µM) of 72.5% and a viability, T/C (second compound 0.949 µM, first compound 0.1 µM) of 73%. It also gave a viability, T/C (second compound 3 µM, first compound 0.000316 µM) of 82.1%, a viability, T/C (second compound 3 µM, first compound 0.001 µM) of 90.3% and a viability, T/C (second compound 3 µM, first compound 0.00316 µM) of 82%. The viability, T/C (second compound 3 µM, first compound 0.01 µM) was 73.8%, the viability, T/C (second compound 3 µM, first compound 0.0316 µM) was 79% and the viability, T/C (second compound 3 µM, first compound 0.1 µM) was 93.7%.
In the case of `CC(=O)OC12COC1CC(O)C1(C)C(=O)C(O)C3=C(C)C(OC(=O)C(O)C(NC(=O)OC(C)(C)C)c4ccccc4)CC(O)(C(OC(=O)c4ccccc4)C21)C3(C)C` (centres undefined) + CNCc1ccccc1-c1csc(C(C)Nc2nc(C)nc3cc(OC)c(OC)cc23)c1, the IC50 (curve of first compound, second compound 0.0316 µM) is reported as < 9.49 nM, the IC50 (curve of first compound, second compound 0.1 µM) is reported as < 9.49 nM and the IC50 (curve of first compound, second compound 0.316 µM) is reported as 39.6 nM. The IC50 (curve of first compound, second compound 1 µM) was > 3000 nM, the IC50 (curve of first compound, second compound 3.16 µM) was > 3000 nM and the IC50 (curve of first compound, second compound 10 µM) was < 9.49 nM. It also gave a viability, T/C (second compound 0.0316 µM, first compound 0.00949 µM) of 40.6%, a viability, T/C (second compound 0.0316 µM, first compound 0.03 µM) of 40.6% and a viability, T/C (second compound 0.0316 µM, first compound 0.0949 µM) of 49.7%. It also gave a viability, T/C (second compound 0.0316 µM, first compound 0.3 µM) of 53%, a viability, T/C (second compound 0.0316 µM, first compound 0.949 µM) of 49.1% and a viability, T/C (second compound 0.0316 µM, first compound 3 µM) of 54.2%. The viability, T/C (second compound 0.1 µM, first compound 0.00949 µM) was 44.2%, the viability, T/C (second compound 0.1 µM, first compound 0.03 µM) was 43.3% and the viability, T/C (second compound 0.1 µM, first compound 0.0949 µM) was 51.8%. For the same compound, the viability, T/C (second compound 0.1 µM, first compound 0.3 µM) was 45.1%, the viability, T/C (second compound 0.1 µM, first compound 0.949 µM) was 42.9% and the viability, T/C (second compound 0.1 µM, first compound 3 µM) was 50%. It also gave a viability, T/C (second compound 0.316 µM, first compound 0.00949 µM) of 44.8%, a viability, T/C (second compound 0.316 µM, first compound 0.03 µM) of 56.5% and a viability, T/C (second compound 0.316 µM, first compound 0.0949 µM) of 54.6%. It also gave a viability, T/C (second compound 0.316 µM, first compound 0.3 µM) of 43.3%, a viability, T/C (second compound 0.316 µM, first compound 0.949 µM) of 48.8% and a viability, T/C (second compound 0.316 µM, first compound 3 µM) of 49%. For the same compound, the viability, T/C (second compound 1 µM, first compound 0.00949 µM) was 47.3%, the viability, T/C (second compound 1 µM, first compound 0.03 µM) was 62.2% and the viability, T/C (second compound 1 µM, first compound 0.0949 µM) was 68.9%. For the same compound, the viability, T/C (second compound 1 µM, first compound 0.3 µM) was 54.3%, the viability, T/C (second compound 1 µM, first compound 0.949 µM) was 55.4% and the viability, T/C (second compound 1 µM, first compound 3 µM) was 61.9%. The viability, T/C (second compound 3.16 µM, first compound 0.00949 µM) was 78.1%, the viability, T/C (second compound 3.16 µM, first compound 0.03 µM) was 73.5% and the viability, T/C (second compound 3.16 µM, first compound 0.0949 µM) was 73.8%. For the same compound, the viability, T/C (second compound 3.16 µM, first compound 0.3 µM) was 77.6%, the viability, T/C (second compound 3.16 µM, first compound 0.949 µM) was 76.8% and the viability, T/C (second compound 3.16 µM, first compound 3 µM) was 56.7%. The viability, T/C (second compound 10 µM, first compound 0.00949 µM) was 0.32%, the viability, T/C (second compound 10 µM, first compound 0.03 µM) was 0.36% and the viability, T/C (second compound 10 µM, first compound 0.0949 µM) was 0.39%. It also gave a viability, T/C (second compound 10 µM, first compound 0.3 µM) of 0.34%, a viability, T/C (second compound 10 µM, first compound 0.949 µM) of 0.34% and a viability, T/C (second compound 10 µM, first compound 3 µM) of 1.75%.
With `CN(C)C/C=C/C(=O)Nc1cc2c(Nc3ccc(F)c(Cl)c3)ncnc2cc1O[C@H]1CCOC1` the viability, T/C (compound 0.000316 µM) was 99.9% [middle of 5 runs], the viability, T/C (compound 0.001 µM) was 91% [middle of 5 runs] and the viability, T/C (compound 0.00316 µM) was 90.5% [middle of 5 runs]. For the same compound, the viability, T/C (compound 0.0316 µM) was 85.3% [middle of 5 runs] and the IC50 (curve of compound) was > 100 nM.
